Literature values in patent publication US20110052580A1, “USE OF PICOPLATIN AND BEVACIZUMAB TO TREAT COLORECTAL CANCER” (Poniard Pharmaceuticals, Inc., priority 2008, published 2011).

Assays:
[1] = system: metastatic colorectal cancer (MCRC); settings: single agent therapy
[2] = system: human vascular endothelial growth factor (VEGF)
[3] = system: xenotransplant models of colon cancer; settings: mouse, in vivo

Sequence of human vascular endothelial growth factor (VEGF) (P15692 207-311 limits assumed): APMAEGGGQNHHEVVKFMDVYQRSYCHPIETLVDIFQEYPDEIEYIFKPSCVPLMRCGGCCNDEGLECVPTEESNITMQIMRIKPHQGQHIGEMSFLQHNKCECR

| Compound | Median survival [1] | Progression-free survival, median [1] | Response rate [1] | Binding to and inhibition of VEGF [2] | Effect on metastatic disease progression [3] | Effect on microvascular growth [3] |
| --- | --- | --- | --- | --- | --- | --- |
| CCc1c2c(nc3ccc(OC(=O)N4CCC(N5CCCCC5)CC4)cc13)-c1cc3c(c(=O)n1C2)COC(=O)[C@]3(O)CC [irinotecan] | ~12 months | 4.3 months | 18% | – | – | – |
| O=C1[O][Pt]2([NH][C@@H]3CCCC[C@H]3[NH]2)[O]C1=O [oxaliplatin] | ~14.5 months | 4.0 months | 12% | – | – | – |
| bevacizumab: recombinant humanized monoclonal IgGl antibody that binds to and inhibits human vascular endothelial growth factor (VEGF) | – | – | – | binds to and inhibits the biologic activity of human vascular endothelial growth factor (VEGF) | inhibition of metastatic disease progression | reduction of microvascular growth |
